Laboratory results taken from patent publication US11479551B2, “MTA-cooperative PRMT5 inhibitors” (Mirati Therapeutics, Inc., priority 2019, dated 2022).

Assays:
[1] = target: T1, PRMT5/MEP50 complex (Homo sapiens (Human), UniProt O14744); experiment: PRMT5:MEP50 FlashPlate Assay (histone H4 peptide substrate, plus and minus MTA); assay type: biochemical
Procedure: (§1) The PRMT5 inhibitory activity of compounds of the present invention was determined using either a PRMT5:MEP50 FlashPlate Assay (Reaction Biology Corporation) or a PRMT5:MEP50 HotSpot Assay (Reaction Biology Corporation).
1. PRMT5:MEP50 FlashPlate Assay

[2] = target: T1, PRMT5/MEP50 complex; experiment: PRMT5:MEP50 HotSpot Assay (full-length histone H2A substrate, plus and minus MTA); assay type: biochemical
Procedure: as §1
The assay uses recombinant full-length histone H2A as the PRMT5 substrate. […] The reaction was stopped and transferred to filter paper for detection. The amount of tritiated H2A in each sample was determined using a scintillation counter.

[3] = IC50 + 2 μM MTA (nM), in the presence of 2 μM MTA
[4] = in the absence of MTA, read-out: IC50
[5] = IC50 + 2 μM MTA, in the presence of 2 μM MTA

T1 sequence (O14744 2-637): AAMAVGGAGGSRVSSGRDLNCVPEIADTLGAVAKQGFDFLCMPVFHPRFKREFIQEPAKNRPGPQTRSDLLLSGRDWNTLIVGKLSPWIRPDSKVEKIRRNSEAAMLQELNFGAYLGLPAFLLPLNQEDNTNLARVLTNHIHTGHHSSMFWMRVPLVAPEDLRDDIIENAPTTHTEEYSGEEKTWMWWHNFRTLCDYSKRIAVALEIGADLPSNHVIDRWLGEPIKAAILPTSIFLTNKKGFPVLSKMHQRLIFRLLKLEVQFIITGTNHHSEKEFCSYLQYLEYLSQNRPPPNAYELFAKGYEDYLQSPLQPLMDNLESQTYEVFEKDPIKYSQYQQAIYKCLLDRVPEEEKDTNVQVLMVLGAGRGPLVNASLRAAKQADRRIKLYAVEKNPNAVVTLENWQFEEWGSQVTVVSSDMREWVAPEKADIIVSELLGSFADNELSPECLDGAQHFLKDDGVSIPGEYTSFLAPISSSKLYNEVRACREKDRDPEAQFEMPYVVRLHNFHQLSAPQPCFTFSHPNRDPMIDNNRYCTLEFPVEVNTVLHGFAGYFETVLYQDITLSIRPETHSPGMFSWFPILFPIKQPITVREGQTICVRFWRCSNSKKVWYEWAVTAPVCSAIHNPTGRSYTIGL
T1 sequence (Q9BQA1 2-342 partner): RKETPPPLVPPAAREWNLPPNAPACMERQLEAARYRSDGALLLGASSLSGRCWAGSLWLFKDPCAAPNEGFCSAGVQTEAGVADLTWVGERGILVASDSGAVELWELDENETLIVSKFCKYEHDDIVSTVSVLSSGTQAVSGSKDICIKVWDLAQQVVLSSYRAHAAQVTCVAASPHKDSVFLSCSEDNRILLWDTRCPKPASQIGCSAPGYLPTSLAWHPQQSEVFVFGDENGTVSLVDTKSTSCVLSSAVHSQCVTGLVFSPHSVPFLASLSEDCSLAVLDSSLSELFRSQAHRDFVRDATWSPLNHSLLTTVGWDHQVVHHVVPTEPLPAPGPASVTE

SMILES | IC50 [1, 3] | IC50 [1, 4] | IC50 [2, 5] | IC50 [2, 4]
N#Cc1ccccc1-c1cncc(-c2ccc3c(=O)[nH]nc(CN)c3c2)c1 [Example 3-40, 2-(5-(4-(aminomethyl)-1-oxo-1,2-dihydrophthalazin-6-yl)pyridin-3-yl)benzonitrile] | 6 nM | 193 nM | 9.69 µM | 
NCc1n[nH]c(=O)c2ccc(-c3cncc(Oc4ccccc4)c3)cc12 [Example 3-50, 4-(aminomethyl)-6-(5-phenoxypyridin-3-yl)phthalazin-1(2H)-one] | 10 nM | 277 nM | 3.78 µM | > 10 µM
NCc1n[nH]c(=O)c2ccc(-c3cnc4[nH]ccc4c3)cc12 [Example 3-59, 4-(aminomethyl)-6-(1H-pyrrolo[2,3-b]pyridin-5-yl)phthalazin-1(2H)-one] | 7.7 nM | 399 nM | 1.14 µM | > 10 µM
COc1ccc2ncc(-c3ccc4c(=O)[nH]nc(CN)c4c3)n2c1 [Example 4-16, 4-(aminomethyl)-6-(6-methoxyimidazo[1,2-a]pyridin-3-yl)phthalazin-1(2H)-one] | 9.4 nM | 602 nM | 8.85 µM | 
Cn1ncc(-c2ccc3c(=O)[nH]nc(CN)c3c2)c1-c1ccccc1 [Example 4-32, 4-(aminomethyl)-6-(1-methyl-5-phenyl-1H-pyrazol-4-yl)phthalazin-1(2H)-one] | 1.6 nM | 45 nM | 2.04 µM | > 10 µM
CCOc1ccc2ncc(-c3ccc4c(=O)[nH]nc(CN)c4c3)n2c1 [Example 4-36, 4-(aminomethyl)-6-(6-ethoxyimidazo[1,2-a]pyridin-3-yl)phthalazin-1(2H)-one] | 13 nM | 541 nM | 2.8 µM | 
Cc1c[nH]c2ncc(-c3ccc4c(=O)[nH]nc(CN)c4c3)cc12 [Example 4-40, 4-(aminomethyl)-6-(3-methyl-1H-pyrrolo[2,3-b]pyridin-5-yl)phthalazin-1(2H)-one] | 10 nM | 276 nM | 3.17 µM | 
NCc1n[nH]c(=O)c2ccc(-c3cnc4[nH]cc(Cl)c4c3)cc12 [Example 4-44, 4-(aminomethyl)-6-(3-chloro-1H-pyrrolo[2,3-b]pyridin-5-yl)phthalazin-1(2H)-one] | 5.4 nM | 691 nM | 6.83 µM | > 10 µM
CCc1c[nH]c2ncc(-c3ccc4c(=O)[nH]nc(CN)c4c3)cc12 [Example 4-45, 4-(aminomethyl)-6-(3-ethyl-1H-pyrrolo[2,3-b]pyridin-5-yl)phthalazin-1(2H)-one] | 16 nM | 291 nM | 2.79 µM | 
NCc1n[nH]c(=O)c2ccc(-c3cncc(C(O)c4ccccc4)c3)cc12 (stereo not drawn) [Example 4-51, 4-(aminomethyl)-6-(5-(hydroxy(phenyl)methyl)pyridin-3-yl)phthalazin-1(2H)-one] | 5.8 nM | 530 nM | 1.51 µM | > 10 µM
NCc1n[nH]c(=O)c2ccc(-c3cncc(Oc4ccccc4Cl)c3)cc12 [Example 4-71, 4-(aminomethyl)-6-(5-(2-chlorophenoxy)pyridin-3-yl)phthalazin-1(2H)-one] | 4.9 nM | 116 nM | 1.05 µM | > 10 µM
Cc1ccc(Oc2cncc(-c3ccc4c(=O)[nH]nc(CN)c4c3)c2)c(C)c1 [Example 4-73, 4-(aminomethyl)-6-(5-(2,4-dimethylphenoxy)pyridin-3-yl)phthalazin-1(2H)-one] | 0.6 nM | 24 nM | 0.933 µM | 
NCc1n[nH]c(=O)c2ccc(-c3cnn4c3CN(c3ccccc3)CC4)cc12 [Example 4-83, 4-(aminomethyl)-6-(5-phenyl-4,5,6,7-tetrahydropyrazolo[1,5-a]pyrazin-3-yl)phthalazin-1(2H)-one] | 14 nM | 344 nM | 2.71 µM | 
COc1cccc(-c2c(-c3ccc4c(=O)[nH]nc(CN)c4c3)cnn2C)c1 [Example 4-93, 4-(aminomethyl)-6-(5-(3-methoxyphenyl)-1-methyl-1H-pyrazol-4-yl)phthalazin-1(2H)-one] | 3.3 nM | 85 nM | 0.845 µM | 
Cn1ncc(-c2ccc3c(=O)[nH]nc(CN)c3c2)c1-c1cccc(OC2CCC2)c1C#N [Example 4-177, 2-(4-(4-(aminomethyl)-1-oxo-1,2-dihydrophthalazin-6-yl)-1-methyl-1H-pyrazol-5-yl)-6-cyclobutoxybenzonitrile] |  |  | 5.97 µM | 

Now from value to compound:

IC50 [1, 3] | IC50 [1, 4] | IC50 [2, 5] | IC50 [2, 4] | SMILES
3.9 nM | 116 nM | 0.868 µM | > 10 µM | Cn1ncc(-c2ccc3c(=O)[nH]nc(CN)c3c2)c1-c1ccc(Cl)cc1 [Example 4-96, 4-(aminomethyl)-6-(5-(4-chlorophenyl)-1-methyl-1H-pyrazol-4-yl)phthalazin-1(2H)-one]
2.1 nM | 90 nM | 0.635 µM |  | COc1ccc(-c2c(-c3ccc4c(=O)[nH]nc(CN)c4c3)cnn2C)cc1 [Example 4-98, 4-(aminomethyl)-6-(5-(4-methoxyphenyl)-1-methyl-1H-pyrazol-4-yl)phthalazin-1(2H)-one]
 |  | 8.71 µM |  | CC(C)Oc1cccc(-c2c(-c3ccc4c(=O)[nH]nc(CN)c4c3)cnn2C)c1C#N [Example 4-176, 2-(4-(4-(aminomethyl)-1-oxo-1,2-dihydrophthalazin-6-yl)-1-methyl-1H-pyrazol-5-yl)-6-isopropoxybenzonitrile]
 |  | 4.88 µM |  | CCCOc1cccc(-c2c(-c3ccc4c(=O)[nH]nc(CN)c4c3)cnn2C)c1C#N [Example 4-178, 2-(4-(4-(aminomethyl)-1-oxo-1,2-dihydrophthalazin-6-yl)-1-methyl-1H-pyrazol-5-yl)-6-propoxybenzonitrile]
 |  | 1.24 µM |  | COc1ccc(-c2c(-c3ccc4c(=O)[nH]nc(CN)c4c3)cnn2C)c(C#N)c1C [Example 4-179, 6-(4-(4-(aminomethyl)-1-oxo-1,2-dihydrophthalazin-6-yl)-1-methyl-1H-pyrazol-5-yl)-3-methoxy-2-methylbenzonitrile]
 |  | > 10 µM |  | N#Cc1ccccc1-c1c(-c2ccc3c(=O)[nH]nc(CN)c3c2)cnn1CCO [Example 4-193, 2-(4-(4-(aminomethyl)-1-oxo-1,2-dihydrophthalazin-6-yl)-1-(2-hydroxyethyl)-1H-pyrazol-5-yl)benzonitrile]
 |  | > 10 µM |  | NCc1n[nH]c(=O)c2ccc(-c3cncc(C4CCCOC4)c3)cc12 (stereo not drawn) [Example 4-195, 4-(aminomethyl)-6-(5-(tetrahydro-2H-pyran-3-yl)pyridin-3-yl)phthalazin-1(2H)-one]
 |  | > 10 µM |  | N#Cc1ccc(C#N)c(-c2cncc(-c3ccc4c(=O)[nH]nc(CN)c4c3)c2)c1 [Example 8-9, 2-(5-(4-(aminomethyl)-1-oxo-1,2-dihydrophthalazin-6-yl)pyridin-3-yl)terephthalonitrile]
 |  | > 10 µM |  | NCc1n[nH]c(=O)c2ccc(-c3cncc(C4CCCCC4)c3)cc12 [Example 14-1, 4-(aminomethyl)-6-(5-cyclohexyl-3-pyridyl)-2H-phthalazin-1-one]
